± gives the expanded uncertainty stated by the source.
Settings: Liquid; for speed of sound: Pulse-echo method; for mass density: Vibrating tube method

CCCCCCCCCCCCCC(=O)OC [methyl tetradecanoate]
Settings	mass density [kg/m3]	speed of sound [m/s]
303.15 K, 100 kPa	–	1335.8 ± 5.5
303.15 K, 101.3 kPa	859.7 ± 1	–
303.15 K, 10000 kPa	866.3 ± 1	1382.9 ± 5.7
303.15 K, 20000 kPa	872.4 ± 1.1	1426.9 ± 5.9
303.15 K, 30000 kPa	878.2 ± 1.1	1468.1 ± 6
303.15 K, 40000 kPa	883.7 ± 1.1	1507.6 ± 6.2
303.15 K, 50000 kPa	888.9 ± 1.1	1544.9 ± 6.3
303.15 K, 60000 kPa	893.8 ± 1.1	1580.2 ± 6.5
303.15 K, 70000 kPa	898.5 ± 1.1	1614.2 ± 6.6
313.15 K, 101.3 kPa	851.6 ± 1	–
313.15 K, 10000 kPa	858.2 ± 1	–
313.15 K, 20000 kPa	864.7 ± 1.1	–
313.15 K, 30000 kPa	870.7 ± 1.1	–
313.15 K, 40000 kPa	876.4 ± 1.1	–
313.15 K, 50000 kPa	881.7 ± 1.1	–
313.15 K, 60000 kPa	886.8 ± 1.1	–
313.15 K, 70000 kPa	891.7 ± 1.1	–
313.15 K, 80000 kPa	896.3 ± 1.1	–
323.15 K, 100 kPa	–	1264 ± 5.2
323.15 K, 101.3 kPa	843.3 ± 1	–
323.15 K, 10000 kPa	850.5 ± 1	1316.4 ± 5.4
323.15 K, 20000 kPa	857.2 ± 1.1	1364.8 ± 5.6
323.15 K, 30000 kPa	863.5 ± 1.1	1409.6 ± 5.8
323.15 K, 40000 kPa	869.4 ± 1.1	1451.9 ± 6
323.15 K, 50000 kPa	874.9 ± 1.1	1492.5 ± 6.1
323.15 K, 60000 kPa	880.2 ± 1.1	1530.5 ± 6.3
323.15 K, 70000 kPa	885.2 ± 1.1	1566.8 ± 6.4
323.15 K, 80000 kPa	889.9 ± 1.1	1601.2 ± 6.5
333.15 K, 101.3 kPa	835.2 ± 1	–
333.15 K, 10000 kPa	843 ± 1	–
333.15 K, 20000 kPa	850.1 ± 1.1	–
333.15 K, 30000 kPa	856.6 ± 1.1	–
333.15 K, 40000 kPa	862.7 ± 1.1	–
333.15 K, 50000 kPa	868.4 ± 1.1	–
333.15 K, 60000 kPa	873.8 ± 1.1	–
333.15 K, 70000 kPa	879 ± 1.1	–
333.15 K, 80000 kPa	883.9 ± 1.1	–
343.15 K, 100 kPa	–	1195.7 ± 5
343.15 K, 101.3 kPa	827.9 ± 1	–
343.15 K, 10000 kPa	835.7 ± 1	1251.2 ± 5.2
343.15 K, 20000 kPa	843.1 ± 1.1	1302.9 ± 5.4
343.15 K, 30000 kPa	849.8 ± 1.1	1350.8 ± 5.6
343.15 K, 40000 kPa	856.2 ± 1.1	1396 ± 5.7
343.15 K, 50000 kPa	862.1 ± 1.1	1437.4 ± 5.9
343.15 K, 60000 kPa	867.7 ± 1.1	1477.5 ± 6.1
343.15 K, 70000 kPa	873 ± 1.1	1515 ± 6.2
343.15 K, 80000 kPa	878 ± 1.2	1550.8 ± 6.3
353.15 K, 101.3 kPa	820.2 ± 1	–
353.15 K, 10000 kPa	828.5 ± 1	–
353.15 K, 20000 kPa	836.1 ± 1.1	–
353.15 K, 30000 kPa	843.2 ± 1.1	–
353.15 K, 40000 kPa	849.8 ± 1.1	–
353.15 K, 50000 kPa	855.9 ± 1.1	–
353.15 K, 60000 kPa	861.6 ± 1.1	–
353.15 K, 70000 kPa	867.1 ± 1.1	–
353.15 K, 80000 kPa	872.3 ± 1.2	–
363.15 K, 100 kPa	–	1130.9 ± 4.7
363.15 K, 101.3 kPa	812.6 ± 1	–
363.15 K, 10000 kPa	821.2 ± 1	1190.4 ± 4.9
363.15 K, 20000 kPa	829.2 ± 1.1	1245.2 ± 5.1
363.15 K, 30000 kPa	836.6 ± 1.1	1295.9 ± 5.3
363.15 K, 40000 kPa	843.4 ± 1.1	1342.5 ± 5.5
363.15 K, 50000 kPa	849.7 ± 1.1	1385.7 ± 5.7
363.15 K, 60000 kPa	855.6 ± 1.1	1426.7 ± 5.9
363.15 K, 70000 kPa	861.2 ± 1.2	1465.5 ± 6
363.15 K, 80000 kPa	866.6 ± 1.2	1502.6 ± 6.1
373.15 K, 101.3 kPa	804.6 ± 1	–
373.15 K, 10000 kPa	813.9 ± 1.1	–
373.15 K, 20000 kPa	822.2 ± 1.1	–
373.15 K, 30000 kPa	829.9 ± 1.1	–
373.15 K, 40000 kPa	836.9 ± 1.1	–
373.15 K, 50000 kPa	843.5 ± 1.1	–
373.15 K, 60000 kPa	849.6 ± 1.1	–
373.15 K, 70000 kPa	855.3 ± 1.2	–
373.15 K, 80000 kPa	860.8 ± 1.2	–
383.15 K, 100 kPa	–	1066.7 ± 4.5
383.15 K, 101.3 kPa	796.4 ± 1	–
383.15 K, 10000 kPa	806.3 ± 1.1	1131.3 ± 4.7
383.15 K, 20000 kPa	815.1 ± 1.1	1189.6 ± 4.9
383.15 K, 30000 kPa	823 ± 1.1	1242.9 ± 5.1
383.15 K, 40000 kPa	830.3 ± 1.1	1291.7 ± 5.3
383.15 K, 50000 kPa	837.1 ± 1.1	1338 ± 5.5
383.15 K, 60000 kPa	843.4 ± 1.1	1380.3 ± 5.7
383.15 K, 70000 kPa	849.3 ± 1.2	1420.4 ± 5.8
383.15 K, 80000 kPa	854.9 ± 1.2	1457.6 ± 6
393.15 K, 100 kPa	–	1036.2 ± 4.3
393.15 K, 101.3 kPa	788.5 ± 1	–
393.15 K, 10000 kPa	798.6 ± 1.1	1103.6 ± 4.6
393.15 K, 20000 kPa	807.7 ± 1.1	1163.5 ± 4.8
393.15 K, 30000 kPa	815.9 ± 1.1	1217.8 ± 5
393.15 K, 40000 kPa	823.5 ± 1.1	1267.7 ± 5.2
393.15 K, 50000 kPa	830.5 ± 1.1	1314.4 ± 5.4
393.15 K, 60000 kPa	837 ± 1.2	1357.8 ± 5.6
393.15 K, 70000 kPa	843.1 ± 1.2	1397.8 ± 5.7
393.15 K, 80000 kPa	848.8 ± 1.2	1436.8 ± 5.9

Reference: the NIST ThermoML archive (doi:10.1021/je400122k)
